Measurements taken from US10953029B2, “4′-Substituted nucleoside reverse transcriptase inhibitors and preparations thereof” (Merck Sharp & Dohme Corp., priority 2015, dated 2021).
Read-outs that look alike come from different tables or passages of the source.

Legend:
[1] = tested on: wild-type HIV-1-GFP virus; assay: Antiviral Persistence in Human Peripheral Blood Mononuclear Cells (PBMC); format: cell-based; conditions: Human immunodeficiency virus 1, PBMC
Method: PBMCs were obtained from Biological Specialty Corporation, activated with 5 μg/ml PHA-P (Sigma L1668) for 72 hrs, and then washed with fresh medium. Following activation, PBMCs were cultured in media containing 10 IU/ml IL-2 (Roche 11011456001). Cells were treated with a titration of compound for 6 or 24 hrs and washed with fresh medium. To evaluate persistence of antiviral activity following wash-out, PBMCs were maintained for either 24 h or 72 h and then infected by adding wild-type HIV-1-GFP virus (17 μL/well) to the plates and incubating at 37° C./5% CO2/90% relative humidity. Infected cells were quantified at 24 h post-infection by counting the number of green cells in each well using an Acumen eX3 scanner. EC50 values in Table 3 were calculated by non-linear 4-parameter curve fitting.
The antiviral persistence assay is meant to assess for the persistence of antiviral activity upon removal of the nucleoside. […] The publication AIDS Research and Therapy, 2009, 6:5, highlights the value of antiviral persistence.

HIV-1 (H9IIIB virus) = assay: Viking Assay: antiviral potency in a multiple round HIV-1 infection assay (MT4-GFP cells); format: cell-based; conditions: Human immunodeficiency virus 1, 10% normal human serum, read-out: Viking, EC50 (10% NHS)
Method: Assessing antiviral potency in a multiple round HIV-1 infection assay. HIV-1 replication was monitored using MT4-gag-GFP clone D3 (hereafter designate MT4-GFP), which are MT-4 cells modified to harbor a GFP reporter gene, the expression of which is dependent on the HIV-1 expressed proteins tat and rev. Productive infection of an MT4-GFP cell with HIV-1 results in GFP expression approximately 24 h post-infection.
MT4-GFP cells were maintained at 37° C./5% CO2/90% relative humidity in RPMI 1640 supplemented with 10% fetal bovine serum, 100 U/mL penicillin/streptomycin, and 400 μg/mL G418 to maintain the reporter gene. For infections, MT4-GFP cells were placed in the same medium lacking G418 and infected overnight with H9IIIB virus at an approximate multiplicity of infection of 0.01 in the same incubation conditions. Cells were then washed and re-suspended in either RPMI 1640 containing 10% or 50% normal human serum at 1.6×10^5 cells/mL (10% or 50% NHS conditions) or in 100% normal human serum at 2×10^5 cells/mL (100% NHS conditions). […]
Infected cells were quantified at two time points, ˜48 h and ˜72 h post-infection, by counting the number of green cells in each well using an Acumen eX3 scanner. […] Inhibition of R0 is calculated for each well, and EC50s determined by non-linear 4-parameter curve fitting.

[2] = molecular target: T1, adenosine deaminase (ADA) type 1 (Homo sapiens, UniProt P00813); assay: Adenosine Deaminase (ADA) Half-Life; format: in vitro ADME; conditions: human ADA type 1 (adenosine deaminase) in Tris-HCl buffer, time for 50% conversion to inosine product, Tris-HCl buffer pH 7.5, 40° C., LCMS
T1 sequence (P00813 1-363): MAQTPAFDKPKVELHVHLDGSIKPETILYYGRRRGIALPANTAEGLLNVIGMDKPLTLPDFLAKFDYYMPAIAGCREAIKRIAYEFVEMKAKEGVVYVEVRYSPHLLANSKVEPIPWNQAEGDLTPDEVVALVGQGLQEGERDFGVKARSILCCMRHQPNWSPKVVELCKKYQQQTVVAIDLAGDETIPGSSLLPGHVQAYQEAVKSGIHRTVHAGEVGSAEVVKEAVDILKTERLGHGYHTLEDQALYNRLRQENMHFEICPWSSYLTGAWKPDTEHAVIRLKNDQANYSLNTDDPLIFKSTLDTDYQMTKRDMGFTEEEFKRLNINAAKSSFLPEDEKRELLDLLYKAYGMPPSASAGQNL
Method: The data in Table 4 was generated by testing the reactivity of the substrate compound with human ADA type 1 in the presence of Tris-HCl buffer (pH 7.5) at 40° C. and monitoring by LCMS for consumption of starting material. The time necessary for 50% conversion to the corresponding inosine product is noted as the T1/2 in Table 4. It is known that deamination by adenosine deaminase decreases the therapeutic potential of adenosine-like nucleoside inhibitors especially in vivo (see references below). […] It is possible that compounds that are more resistant to ADA will have better pharmacokinetic properties.

[3] = tested on: wild-type and multi-drug resistant HIV-1 strains; conditions: cited from earlier work
HIV-1 RT enzyme = molecular target: T2, HIV-1 RT enzyme (Human immunodeficiency virus type 1 group M subtype B, UniProt P04585); assay: RT Polymerase Assay; format: biochemical
T2 construct: Full-length wild-type and 2 mutant RT proteins were expressed in Escherichia coli BL21(DE3) cells and purified; made in house; host or cells: Escherichia coli BL21(DE3)
Method: Full-length wild-type and 2 mutant RT proteins were expressed in Escherichia coli BL21(DE3) cells and purified. Briefly, the heterodimeric nucleic acid substrate used in the HIV-1 RT polymerase reactions was generated by annealing biotinylated DNA primer to a 500 nucleotide RNA template. The HIV-1 RT enzyme (final concentration of 50 pM) was combined with an inhibitor compound or DMSO (10% DMSO in the final reaction mixture) in assay buffer (62.5 mM Tris-HCl, pH 7.8, 1.25 mM dithiothreitol, 7.5 mM MgCl2, 100 mM KCl, 0.03% CHAPS, 0.125 mM EGTA). This mixture was pre-incubated for 30 minutes at room temperature in microtiter plates. The polymerization reaction was initiated by the addition of template/primer substrate (final concentration: 16.6 nM) and dNTPs (final concentration: 2 μM dCTP, dGTP, dATP, and 66.6 nM Ru-dUTP). After 90 min of incubation at 37° C., reactions were quenched by the addition of EDTA (25 mM). The resulting mixture was incubated for an additional 5 minutes at room temperature followed by transferring the solution (50 μL) to blocked avidin plate from Meso Scale Discovery (MSD). The mixtures were incubated at room temperature for 60 min prior to the quantification of the reaction product via an ECL 6000 imager instrument.

In the case of `Cc1cn([C@H]2C[C@H](N=[N+]=[N-])[C@@H](CO)O2)c(=O)[nH]c1=O` [AZT, 3′-azido-3′-deoxythymidine], the EC50 ([1]; 24 h, read-out: EC50 24 h) is reported as 0.019 µM, the EC50 ([1]; 72 h, read-out: EC50 72 h) is reported as 0.068 µM and the EC50 (HIV-1 (H9IIIB virus)) is reported as 0.037 µM.
For `Nc1ncnc2c1ncn2[C@H]1C[C@H](O)[C@@H](CO)O1` [Deoxy- adenosine, deoxyadenosine], the half-life [2] was < 0.167 h.
In the case of `C#C[C@]1(CO)O[C@@H](n2cnc3c(N)ncnc32)C[C@@H]1O` [EDA, (2R,3S,5R)-5-(6-amino-9H-purin-9-yl)-2-ethynyl-2-(hydroxymethyl)tetrahydrofuran-3-ol], the half-life [2] is reported as < 1 h.
In the case of `C#C[C@]1(CO)O[C@@H](n2cnc3c(N)nc(F)nc32)C[C@@H]1O` [EFdA, (2R,3S,5R)-5-(6-amino-2-fluoro-9H-purin-9-yl)-2-ethynyl-2-(hydroxymethyl)tetrahydrofuran-3-ol], the antiviral activity [3] is given as “potent antiviral activity”.
In the case of `C#C[C@]1(CO)O[C@@H](n2cc(F)c3c(N)nc(Cl)nc32)C[C@@H]1O` [Example 1, (2R,3S,5R)-5-(4-amino-2-chloro-5-fluoro-7H-pyrrolo[2,3-d]pyrimidin-7-yl)-2-ethynyl-2-(hydroxymethyl)tetrahydrofuran-3-ol], the EC50 ([1]; 24 h, read-out: EC50 24 h) is reported as 0.00038 µM, the EC50 ([1]; 72 h, read-out: EC50 72 h) is reported as 0.0038 µM and the half-life ([2]; value given as symbol) is reported as > 240 h. For the same molecule, the EC50 (HIV-1 (H9IIIB virus)) was 0.0012 µM.
`C#C[C@]1(COP(=O)(O)OP(=O)(O)OP(=O)(O)O)O[C@@H](n2cc(F)c3c(N)nc(Cl)nc32)C[C@@H]1O` [Example 2, ammonium ((2R,3S,5R)-5-(4-amino-2-chloro-5-fluoro-7H-pyrrolo[2,3-d]pyrimidin-7-yl)-2-ethynyl-3-hydroxytetrahydrofuran-2-yl)methyl triphosphate] gave an IC50 (HIV-1 RT enzyme) of 0.49 µM.
